Results published in the Kinase Knowledgebase extract (Sharma et al. 2016).

Experiments:
CDK2 = CDK2 (UniProt P24941); test: Enzyme Assay
EGFR = EGFR (UniProt P00533); conditions: concentration not given here
Sequence of EGFR (P00533 whole entry, looked up): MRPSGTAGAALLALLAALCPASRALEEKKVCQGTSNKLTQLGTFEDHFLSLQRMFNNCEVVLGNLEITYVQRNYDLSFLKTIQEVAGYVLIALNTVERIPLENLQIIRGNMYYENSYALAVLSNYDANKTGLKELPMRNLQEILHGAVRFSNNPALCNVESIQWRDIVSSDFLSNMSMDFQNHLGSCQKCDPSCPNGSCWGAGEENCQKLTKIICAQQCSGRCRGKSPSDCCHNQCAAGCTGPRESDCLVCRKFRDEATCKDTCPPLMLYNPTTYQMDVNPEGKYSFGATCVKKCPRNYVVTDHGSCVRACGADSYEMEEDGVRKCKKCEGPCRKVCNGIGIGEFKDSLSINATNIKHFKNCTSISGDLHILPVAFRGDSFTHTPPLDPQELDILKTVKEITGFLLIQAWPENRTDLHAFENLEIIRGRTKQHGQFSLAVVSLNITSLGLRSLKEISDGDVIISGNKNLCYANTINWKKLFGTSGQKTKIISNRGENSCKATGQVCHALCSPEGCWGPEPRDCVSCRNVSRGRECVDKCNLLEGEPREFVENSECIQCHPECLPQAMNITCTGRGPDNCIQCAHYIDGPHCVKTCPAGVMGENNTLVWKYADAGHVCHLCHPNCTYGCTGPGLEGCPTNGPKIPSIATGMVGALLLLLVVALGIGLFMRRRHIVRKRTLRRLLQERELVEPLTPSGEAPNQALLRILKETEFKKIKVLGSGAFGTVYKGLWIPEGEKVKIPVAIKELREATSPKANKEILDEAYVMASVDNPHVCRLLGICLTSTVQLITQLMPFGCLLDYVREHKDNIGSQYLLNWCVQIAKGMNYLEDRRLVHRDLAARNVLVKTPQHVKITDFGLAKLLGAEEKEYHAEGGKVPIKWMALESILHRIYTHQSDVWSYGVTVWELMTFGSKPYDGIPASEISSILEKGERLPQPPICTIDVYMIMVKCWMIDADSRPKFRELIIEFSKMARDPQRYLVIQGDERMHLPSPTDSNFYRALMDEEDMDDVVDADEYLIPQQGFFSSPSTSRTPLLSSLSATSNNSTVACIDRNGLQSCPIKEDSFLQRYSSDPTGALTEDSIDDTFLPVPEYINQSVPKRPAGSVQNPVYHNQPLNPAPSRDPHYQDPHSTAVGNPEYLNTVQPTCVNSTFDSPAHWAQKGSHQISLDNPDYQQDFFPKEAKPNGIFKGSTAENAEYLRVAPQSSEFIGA

Compound	IC50 (CDK2)	inhibition (EGFR)
COc1ccccc1-c1cc(Nc2ccc(NC(=O)[C@@H](N)c3ccccc3)cc2)ncn1	1000 to 10000 nM	50 to 80%
COc1ccccc1-c1cc(Nc2ccc(C(=O)N[C@@H]3CCCC[C@H]3N)cc2)ncn1.COc1ccccc1-c1cc(Nc2ccc(C(=O)N[C@H]3CCCC[C@@H]3N)cc2)ncn1	1000 to 10000 nM	50 to 80%
COc1ccccc1-c1cc(Nc2ccc(NC(=O)c3cn(C)cn3)cc2)ncn1	1000 to 10000 nM	50 to 80%
COc1ccccc1-c1cc(Nc2ccc(NC(=O)[C@H]3CCCCN3)cc2)ncn1	1000 to 10000 nM	> 80%
COc1ccccc1-c1cc(Nc2ccc(NC(=O)c3ccc(N4CCN(C)CC4)cc3)cc2)ncn1	1000 to 10000 nM	50 to 80%
CCCS(=O)(=O)Nc1cc(Nc2cc(-c3cccc(N)c3)ncn2)ccc1C	1 to 1000 nM	> 80%
Cc1ccc(Nc2cc(-c3cccc(N)c3)ncn2)cc1NS(C)(=O)=O	1 to 1000 nM	> 80%
COc1ccccc1-c1cc(Nc2ccc(NC(=O)CCN)cc2)ncn1	1000 to 10000 nM	> 80%
CCN(CC)CCC(=O)Nc1ccc(Nc2cc(-c3ccccc3OC)ncn2)cc1	1000 to 10000 nM	> 80%
COc1ccccc1-c1cc(Nc2ccc(NC(=O)NC3CCCCC3)cc2)ncn1	1000 to 10000 nM	30 to 50%
CN[C@H](C(=O)Nc1ccc(Nc2cc(-c3ccccc3OC)ncn2)cc1)c1ccccc1	1000 to 10000 nM	> 80%
COc1ccccc1-c1cc(Nc2ccc(NC(=O)C3(N)CCCCC3)cc2)ncn1	1000 to 10000 nM	> 80%
CNC(C)(C)C(=O)Nc1ccc(Nc2cc(-c3ccccc3OC)ncn2)cc1	1000 to 10000 nM	> 80%
COc1ccccc1-c1cc(Nc2ccc(NC(=O)Cc3ccccc3)cc2)ncn1	1000 to 10000 nM	30 to 50%
COc1ccccc1-c1cc(Nc2ccc(NS(C)(=O)=O)cc2)ncn1	1 to 1000 nM	50 to 80%
COc1ccccc1-c1cc(Nc2ccc(C(=O)NC3CCCNC3)cc2)ncn1 (centres undefined)	1 to 1000 nM	> 80%
COc1ccccc1-c1cc(Nc2ccc(NC(=O)C3CCCN(C)C3)cc2)ncn1 (centres undefined)	1000 to 10000 nM	> 80%
COc1ccccc1-c1cc(Nc2ccc(NC(=O)CC3CCCCN3)cc2)ncn1 (centres undefined)	1000 to 10000 nM	> 80%
COc1ccccc1-c1cc(Nc2ccc(NC(=O)[C@@H]3CCCCN3)cc2)ncn1	1000 to 10000 nM	> 80%
COc1ccccc1-c1cc(Nc2ccc(NC(C)=O)cc2)ncn1	1 to 1000 nM	50 to 80%
COc1ccccc1-c1cc(Nc2ccc(NC(=O)[C@H]3CCCN3)cc2)ncn1	1000 to 10000 nM	> 80%
CC(C)Oc1ccccc1-c1cc(Nc2ccc(NC(=O)c3ccc(N)cc3)cc2)ncn1	1 to 1000 nM	50 to 80%
NC(=O)c1ccc(Nc2cc(-c3ccccc3OCc3ccccc3)ncn2)cc1	1 to 1000 nM	50 to 80%

Compound	IC50 (CDK2)	inhibition (EGFR)
NCCCOc1ccccc1-c1cc(Nc2ccc(NC(=O)c3ccc(N)cc3)cc2)ncn1	1000 to 10000 nM	> 80%
COC(=O)CN(c1ccc(Nc2cc(-c3ccc(O)cc3)ncn2)cc1)S(=O)(=O)c1ccc(C)cc1	1 to 1000 nM	–
COc1ccccc1-c1cc(Nc2ccc(NC(=O)CC3CCCCN3C(=O)OC(C)(C)C)cc2)ncn1 (centres undefined)	1000 to 10000 nM	–
Cc1ccc(Nc2cc(-c3cncnc3)ncn2)cc1NS(C)(=O)=O	1000 to 10000 nM	–
Nc1ccc(C(=O)Nc2ccc(Nc3cc(Cl)ncn3)cc2)cc1	10000 to 250000 nM	–
Nc1ccc(C(=O)Nc2ccc(Nc3cc(-c4ccncc4)ncn3)cc2)cc1	10000 to 250000 nM	–
N[C@@H]1CCCC[C@H]1NC(=O)c1ccc(Nc2cc(-c3ccccc3OCc3ccccc3)ncn2)cc1.N[C@H]1CCCC[C@@H]1NC(=O)c1ccc(Nc2cc(-c3ccccc3OCc3ccccc3)ncn2)cc1	1 to 1000 nM	–
COc1ccccc1-c1cc(N(C)c2ccc(NS(=O)(=O)c3ccc(C)cc3)cc2)ncn1	1000 to 10000 nM	–
COc1ccccc1-c1cc(Nc2ccc(C(=O)Nc3ccc(N4CCOCC4)cc3)cc2)ncn1	1000 to 10000 nM	–
Cc1ccc(Nc2cc(-c3cccc(N)c3)ncn2)cc1NS(=O)(=O)c1ccccc1	1000 to 10000 nM	50 to 80%
COc1ccccc1-c1cc(Nc2ccc(NC(=O)C3CCCCC3)cc2)ncn1	10000 to 250000 nM	–
COc1ccccc1-c1cc(Nc2cccc(NC(=O)C(C)(C)C)c2)ncn1	1000 to 10000 nM	–
Nc1ccc(C(=O)Nc2ccc(Nc3cc(-c4ccccc4O)ncn3)cc2)cc1	10000 to 250000 nM	–
COC(=O)/C=C/c1cccc(-c2cc(Nc3ccc(C)c(NS(C)(=O)=O)c3)ncn2)c1	1000 to 10000 nM	–
COc1ccc(OC)c(-c2cc(Nc3ccc(NC(=O)c4ccc(N)cc4)cc3)ncn2)c1	10000 to 250000 nM	–
COc1ccccc1-c1cc(Nc2ccc(NC(=O)C(C)(C)C)cc2C)ncn1	10000 to 250000 nM	–
COc1ccccc1-c1cc(Nc2ccc(NC(=N)N)cc2)ncn1	1000 to 10000 nM	–
Cc1ccc(Nc2cc(-c3cccc(C#N)c3)ncn2)cc1NS(C)(=O)=O	1000 to 10000 nM	–
COc1ccccc1-c1cc(Nc2ccc(N)cc2)ncn1	1 to 1000 nM	> 80%
COc1cccc(-c2cc(Nc3ccc(NC(=O)c4ccc(N)cc4)cc3)ncn2)c1OC	1000 to 10000 nM	–
COc1ccccc1-c1cc(Nc2ccc(NC(=O)c3ccccc3N)cc2)ncn1	1000 to 10000 nM	–
COc1ccccc1-c1cc(Nc2ccc(NC(=O)C(N)c3ccc4ccccc4c3)cc2)ncn1 (centres undefined)	1000 to 10000 nM	–
COc1ccccc1-c1cc(Nc2ccc(C(=O)Nc3ccccc3)cc2)ncn1	10000 to 250000 nM	–

Compound	IC50 (CDK2)	inhibition (EGFR)
COc1ccccc1-c1cc(Nc2cccc(C(N)=O)c2)ncn1	1 to 1000 nM	–
CC(C)(C)C(=O)Nc1ccc(Nc2cc(NCCN)ncn2)cc1	10000 to 250000 nM	–
COc1ccccc1-c1cc(Nc2cccc(S(C)(=O)=O)c2)ncn1	1 to 1000 nM	–
COc1ccccc1-c1cc(Nc2ccc(NC(=O)C3(N)CCCC3)cc2)ncn1	1000 to 10000 nM	> 80%
COc1ccccc1-c1cc(Nc2ccc(NC(=O)[C@@H](N)C(C)C)cc2)ncn1	1000 to 10000 nM	–
CS(=O)(=O)Nc1cccc(-c2cc(Nc3ccc(C(=O)N[C@@H]4CCCC[C@H]4N)cc3)ncn2)c1.CS(=O)(=O)Nc1cccc(-c2cc(Nc3ccc(C(=O)N[C@H]4CCCC[C@@H]4N)cc3)ncn2)c1	1000 to 10000 nM	–
CCCCNS(=O)(=O)c1cccc(Nc2cc(-c3ccccc3OC)ncn2)c1	1000 to 10000 nM	–
CC(C)(C)C(=O)Nc1ccc(Nc2cc(-c3ccccc3OCc3ccccc3)ncn2)cc1	1000 to 10000 nM	–
COc1ccccc1-c1cc(Nc2ccc(NS(=O)(=O)c3ccc(C)cc3)cc2)ncn1	1 to 1000 nM	–
Nc1ccc(C(=O)Nc2ccc(Nc3cc(-c4ccc(O)cc4)ncn3)cc2)cc1	1000 to 10000 nM	–
COc1ccccc1-c1cc(Nc2ccc(NC(=O)[C@@H]3Cc4ccccc4CN3)cc2)ncn1	1000 to 10000 nM	> 80%
Nc1ccc(C(=O)Nc2ccc(Nc3cc(/C=C/c4ccccc4)ncn3)cc2)cc1	10000 to 250000 nM	–
Oc1ccccc1-c1cc(NCCc2ccncc2)ncn1	10000 to 250000 nM	–
Nc1ccc(C(=O)Nc2ccc(Nc3cc(-c4ccccc4OCc4ccccc4)ncn3)cc2)cc1	1000 to 10000 nM	30 to 50%
COc1ccccc1-c1cc(Nc2ccc(NS(=O)(=O)c3ccccc3)cc2)ncn1	1 to 1000 nM	–
COc1ccccc1-c1cc(Nc2ccc(NC(=O)C3(NC(=O)OC(C)(C)C)CCCC3)cc2)ncn1	10000 to 250000 nM	–
COc1ccccc1-c1cc(Nc2ccc(NC(=O)C(c3ccccc3)C(C)C)cc2)ncn1 (centres undefined)	10000 to 250000 nM	–
COc1ccccc1-c1cc(Nc2ccc(NC(=O)CN(C)C)cc2)ncn1	1000 to 10000 nM	–
COc1ccccc1-c1cc(Nc2ccc(NC(=O)[C@@H]3CCN3)cc2)ncn1	1000 to 10000 nM	–
CC(C)Oc1ccccc1-c1cc(Nc2ccc(C(=O)N[C@@H]3CCCC[C@H]3N)cc2)ncn1.CC(C)Oc1ccccc1-c1cc(Nc2ccc(C(=O)N[C@H]3CCCC[C@@H]3N)cc2)ncn1	1000 to 10000 nM	–
COc1ccccc1-c1cc(Nc2ccc(N3CCCC3=O)cc2)ncn1	1 to 1000 nM	50 to 80%
COc1ccccc1-c1cc(Nc2ccc(N)cc2C)ncn1	1000 to 10000 nM	–
CS(=O)(=O)Nc1cccc(Nc2cc(-c3cccc(N)c3)ncn2)c1	1000 to 10000 nM	–
